Values quoted from earlier work in patent US20130316926A1, “METHOD FOR THE MONITORING OF SMOKING CESSATION COMPLIANCE AND RECOVERY, THERAPEUTIC INTERVENTION, AND RISK MANAGEMENT” (Health Diagnostic Laboratory, Inc., priority 2012, published 2013).
Like-named read-outs stand apart in the source and are kept apart here.

What was measured:
[1] = for urinary concentration: tobacco user, regardless of nicotine replacement therapy
[2] = for t½: b55, cotinine value is an average

SMILES | Concentration of Urinary: Non-tobacco user with no passive exposure [1] [ng/mL] | Concentration of Urinary: Non-tobacco user with Passive exposure [1] [ng/mL] | Concentration of Urinary: Tobacco user after 2 weeks' abstinence [1] [ng/mL] | concentration in urine of tobacco users [1] | half-life [2] [h] | time to reach the central nervous system ([2]; after tobacco smoke inhalation) [s] | t½ [2] [h] | fraction of circulating nicotine metabolized to cotinine ([2]; by cytochrome P450 and aldehyde oxidase) [%] | distribution half-life ([2]; in vivo) [min] | elimination half-life ([2]; in vivo) [h] | nicotine leaving the liver in metabolite forms ([2]; on average) [%] | nicotine that enters the liver and exits unchanged ([2]; on average) [%] | urinary concentration [1] [ng/mL] | half-life ([2]; b40, Benowitz 1986)
CN1C(=O)[C@H](O)C[C@H]1c1cccnc1 (relative stereo) [trans-3-hydroxycotinine] | <50 | <50 | <120 | 3,000-25,000 ng/mL | 10 | – | – | – | – | – | – | – | – | –
CN1CCCC1c1cccnc1 (centres unmarked) [Nicotine] | <2.0 | <20 | <30 | 1,000-5,000 ng/mL | 2 | ≤ 20 | 2 | 70 | 8 | 2 | 70 | 30 | – | –
c1cncc([C@@H]2CCCN2)c1 [Nornicotine] | <2.0 | <2.0 | <2.0 | – | – | – | – | – | – | – | – | – | > 30 | –
CN1C(=O)CC[C@H]1c1cccnc1 [Cotinine] | <5.0 | <20 | <50 | 1,000-8,000 ng/mL | 15 | – | 16 | – | – | – | – | – | – | about 20 hrs
c1cncc([C@@H]2CCCCN2)c1 [Anabasine] | <2.0 | <2.0 | <2.0 | – | – | – | – | – | – | – | – | – | > 10 | –
